Key:
[1] = Hematological examination, Experiment 6-4; type: in vivo, mouse; details: for %BASO / %EOS / %LUC / %LYM / %MONO / %NEUT / %RETIC / HCT / HDW / HGB / MCH / MCV / MPV / PLT / RBC / RDW / WBC: Day 14
[2] = test system: rheumatoid arthritis model, DBA-1J Mice [류마티스 관절염 모델]; experiment: Arthritis score in rheumatoid arthritis animal model, dose regimen study, Experiment 6; type: in vivo, mouse
[3] = G3: MTX 2 mpk qd PO, G12: Py 15 mpk qd PO

CCc1nc(N)nc(N)c1-c1ccc(Cl)cc1 [피리메타민, Pyrimethamine]
%BASO [1, 3]: 0.4±0.3% | %EOS [1, 3]: 1.5±0.4% | %LUC [1, 3]: 1.5±1% | %LYM [1, 3]: 40.4±4.1% | %MONO [1, 3]: 4.2±0.8% | %NEUT [1, 3]: 52±5.2% | %RETIC [1, 3]: 3.85±0.63% | HCT [1, 3]: 46±2.5% | HDW [1, 3]: 2.15 ± 0.13 g/dL | HGB [1, 3]: 12.6 ± 0.7 g/dL | MCH [1, 3]: 13.1 ± 0.4 pg | MCV [1, 3]: 47.8 ± 1.5 fL | MPV [1, 3]: 6.3 ± 0.1 fL | PLT [1, 3]: 1211±176 10^3 cell/μL | RBC [1, 3]: 9.63±0.75 10^6 cell/μL | RDW [1, 3]: 24.2±2.2% | WBC [1, 3]: 3.58±1.19 10^3 cell/μL | %BASO ([1]; G7: Py 1 mpk qd IP): 0.8±0.1% | %EOS ([1]; G7: Py 1 mpk qd IP): 1.2±0.2% | %LUC ([1]; G7: Py 1 mpk qd IP): 2.8±1.3% | %LYM ([1]; G7: Py 1 mpk qd IP): 49.2±3.5% | %MONO ([1]; G7: Py 1 mpk qd IP): 6.1±2.1% | %NEUT ([1]; G7: Py 1 mpk qd IP): 40±3.5% | %RETIC ([1]; G7: Py 1 mpk qd IP): 5.1±0.9% | HCT ([1]; G7: Py 1 mpk qd IP): 43.6±3.2% | HDW ([1]; G7: Py 1 mpk qd IP): 2.33 ± 0.15 g/dL | HGB ([1]; G7: Py 1 mpk qd IP): 11.9 ± 0.7 g/dL | MCH ([1]; G7: Py 1 mpk qd IP): 12.3 ± 0.2 pg | MCV ([1]; G7: Py 1 mpk qd IP): 45.1 ± 0.8 fL | MPV ([1]; G7: Py 1 mpk qd IP): 7.5 ± 0.6 fL | PLT ([1]; G7: Py 1 mpk qd IP): 403±182 10^3 cell/μL | RBC ([1]; G7: Py 1 mpk qd IP): 9.68±0.63 10^6 cell/μL | RDW ([1]; G7: Py 1 mpk qd IP): 22±2.8% | WBC ([1]; G7: Py 1 mpk qd IP): 5.4±2.01 10^3 cell/μL | %BASO ([1]; G8: Py 1 mpk qd PO): 0.6±0.2% | %EOS ([1]; G8: Py 1 mpk qd PO): 1.6±0.5% | %LUC ([1]; G8: Py 1 mpk qd PO): 2±0.8% | %LYM ([1]; G8: Py 1 mpk qd PO): 45±8.1% | %MONO ([1]; G8: Py 1 mpk qd PO): 4.7±1.2% | %NEUT ([1]; G8: Py 1 mpk qd PO): 46.3±9.0% | %RETIC ([1]; G8: Py 1 mpk qd PO): 6.74±3.63% | HCT ([1]; G8: Py 1 mpk qd PO): 44.8±2.5% | HDW ([1]; G8: Py 1 mpk qd PO): 2.31 ± 0.25 g/dL | HGB ([1]; G8: Py 1 mpk qd PO): 12.3 ± 0.6 g/dL | MCH ([1]; G8: Py 1 mpk qd PO): 12.6 ± 0.4 pg | MCV ([1]; G8: Py 1 mpk qd PO): 45.6 ± 0.9 fL | MPV ([1]; G8: Py 1 mpk qd PO): 6.3 ± 0.1 fL | PLT ([1]; G8: Py 1 mpk qd PO): 1380±72 10^3 cell/μL | RBC ([1]; G8: Py 1 mpk qd PO): 9.82±0.67 10^6 cell/μL | RDW ([1]; G8: Py 1 mpk qd PO): 21.5±3% | WBC ([1]; G8: Py 1 mpk qd PO): 2.67±0.58 10^3 cell/μL | Hematotoxicity (in words) ([1]; G7, intraperitoneal injection): 혈소판 수치가 감소하는 독성이 나타났다 | Hematotoxicity (in words) ([1]; oral groups G8-G12): 혈액 독성이 나타나지 않음 | Arthritis score ([2]; Day 0, G7: Py 1 mg/kg/day QD IP): 2.5±1.0 total score | Arthritis score ([2]; Day 0, G8: Py 1 mg/kg/day BID PO): 2.5±1.0 total score | Arthritis score ([2]; Day 0, G9: Py 1 mg/kg/day QD PO): 2.5±1.0 total score | Arthritis score ([2]; Day 0, G10: Py 3 mg/kg/day BID PO): 2.5±1.0 total score | Arthritis score ([2]; Day 0, G11: Py 5 mg/kg QD PO): 2.5±1.2 total score | Arthritis score ([2]; Day 0, G12: Py 15 mg/kg/day QD PO): 2.5±1.0 total score | Arthritis score ([2]; Day 2, G7: Py 1 mg/kg/day QD IP): 4.7±1.6 total score | Arthritis score ([2]; Day 2, G8: Py 1 mg/kg/day BID PO): 4.8±0.8 total score | Arthritis score ([2]; Day 2, G9: Py 1 mg/kg/day QD PO): 4.7±1.4 total score | Arthritis score ([2]; Day 2, G10: Py 3 mg/kg/day BID PO): 4.5±1.0 total score | Arthritis score ([2]; Day 2, G11: Py 5 mg/kg QD PO): 4.3±2.0 total score | Arthritis score ([2]; Day 2, G12: Py 15 mg/kg/day QD PO): 4.2±1.2 total score | Arthritis score ([2]; Day 5, G7: Py 1 mg/kg/day QD IP): 7.2±1.9 total score | Arthritis score ([2]; Day 5, G8: Py 1 mg/kg/day BID PO): 7.0±1.3 total score | Arthritis score ([2]; Day 5, G9: Py 1 mg/kg/day QD PO): 6.8±1.7 total score | Arthritis score ([2]; Day 5, G10: Py 3 mg/kg/day BID PO): 6.2±2.4 total score

Reference: patent KR20210056931A, “피리메타민을 유효성분으로 포함하는 면역 관련 질환의 치료 또는 예방용 약학 조성물” (priority 2019, dated 2021)
